Series [1] is described as follows: Aqueous solubility of the compound in water by HPLC based shake flask method. The class given is physicochemical.
For series [2], the species on record is Sus scrofa. To be noted: 100 nM.
The species named for series [3] is Sus scrofa. The settings on record: 100 nM. This is another data set of the same source.
For series [4], the target named is T1, Glycogen synthase kinase-3 alpha (Homo sapiens, UniProt P49840). To be noted: HL-60, 5 to 10 uM.
Target sequence in this assay (P49840 2-483 limits assumed): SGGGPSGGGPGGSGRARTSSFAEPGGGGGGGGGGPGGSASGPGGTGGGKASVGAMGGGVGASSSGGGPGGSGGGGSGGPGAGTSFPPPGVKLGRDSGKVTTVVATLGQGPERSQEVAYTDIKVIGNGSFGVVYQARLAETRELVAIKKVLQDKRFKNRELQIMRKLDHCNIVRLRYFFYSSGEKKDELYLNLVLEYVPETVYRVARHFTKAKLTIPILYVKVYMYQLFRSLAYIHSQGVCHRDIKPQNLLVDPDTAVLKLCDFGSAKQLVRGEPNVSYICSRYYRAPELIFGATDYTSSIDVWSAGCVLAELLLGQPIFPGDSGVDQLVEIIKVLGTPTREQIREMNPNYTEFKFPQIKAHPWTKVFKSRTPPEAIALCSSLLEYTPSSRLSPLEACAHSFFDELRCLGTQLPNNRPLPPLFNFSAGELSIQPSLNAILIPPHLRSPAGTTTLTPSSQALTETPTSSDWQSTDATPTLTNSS
Description: Inhibition of GSK-3 alpha in human HL-60 cells assessed as CD11b expression at 5 to 10 uM after 6 days by flow cytometry
In series [5] the target is T1, Glycogen synthase kinase-3 alpha. To be noted: NB-4, 5 to 10 uM.
Target sequence in this assay (P49840 2-483 limits assumed): as above
Description: Inhibition of GSK-3 alpha in human NB4 cells assessed as CD14 expression at 5 to 10 uM after 6 days by flow cytometry
Series [6] shares this target. To be noted: NB-4, 5 to 10 uM. The source holds these as a separate data set.
Target sequence in this assay (P49840 2-483 limits assumed): as above
Series [7] has the same target.
Target sequence in this assay (P49840 whole entry): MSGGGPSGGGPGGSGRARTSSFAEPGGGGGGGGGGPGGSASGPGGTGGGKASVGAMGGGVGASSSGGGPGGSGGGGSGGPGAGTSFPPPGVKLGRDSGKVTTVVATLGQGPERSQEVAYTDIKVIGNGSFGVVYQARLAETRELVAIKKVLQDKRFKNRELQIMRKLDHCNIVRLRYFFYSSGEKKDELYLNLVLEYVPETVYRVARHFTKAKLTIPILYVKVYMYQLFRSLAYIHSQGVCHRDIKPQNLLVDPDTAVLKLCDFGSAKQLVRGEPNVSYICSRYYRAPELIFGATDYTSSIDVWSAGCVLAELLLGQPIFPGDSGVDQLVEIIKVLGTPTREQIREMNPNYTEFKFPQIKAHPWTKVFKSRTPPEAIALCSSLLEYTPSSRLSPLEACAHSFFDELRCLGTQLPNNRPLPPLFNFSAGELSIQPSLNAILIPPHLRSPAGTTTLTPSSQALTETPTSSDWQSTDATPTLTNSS
Series [8] has as its system Danio rerio. In words: Toxicity in wild type zebrafish embryo in E3 medium assessed as induction of lethality treated at <60 uM dosed 24 hrs of post fertilization observed on 96 to 120 hrs of post fertilization. The class given is organism-based. To be noted: in vivo.
Series [9] has as its target T1, Glycogen synthase kinase-3 alpha. To be noted: HL-60, 5 to 10 uM. This is another data set of the same source.
Target sequence in this assay (P49840 2-483 limits assumed): as the sequence (P49840 2-483 limits assumed) above
Description: Inhibition of GSK-3 alpha in human HL-60 cells assessed as CD14 expression at 5 to 10 uM after 6 days by flow cytometry
Series [10] shares this target. The settings on record: HL-60, 5 to 10 uM. The source holds these as a separate data set.
Target sequence in this assay (P49840 2-483 limits assumed): as above
Series [11] has as its target Glycogen synthase kinase-3 beta (Homo sapiens, UniProt P49841).
For series [12], the system named is Danio rerio. In words: Induction of morphological abnormality in wild type zebrafish embryo in E3 medium at 1 to 15 uM dosed 24 hrs of post fertilization. The class given is functional, organism-based.
Series [13] relates to Danio rerio. In words: Induction of morphological abnormality wild type zebrafish embryo in E3 medium assessed as stunted and crooked tail phenotype at >30 uM dosed 24 hrs of post fertilization. The format is functional, organism-based.
For series [14], the target named is T1, Glycogen synthase kinase-3 alpha. To be noted: HL-60, 5 to 10 uM. This is another data set of the same source.
Target sequence in this assay (P49840 2-483 limits assumed): as above
Description: Inhibition of GSK-3 alpha in human HL-60 cells assessed as decreased nuclear to cytoplasmic ratio at 5 to 10 uM after 6 days by May-Grunwald Giemsa staining based light microscopy
For series [15] the target is unchanged. The settings on record: NB-4, 5 to 10 uM. The source holds these as a separate data set.
Description: Inhibition of GSK-3 alpha in human NB4 cells assessed as CD11b expression at 5 to 10 uM after 6 days by flow cytometry
The target is the same in series [16]. To be noted: HL-60, 5 to 10 uM. The source holds these as a separate data set.
Description: Inhibition of GSK-3 alpha in human HL-60 cells assessed as CD11c expression at 5 to 10 uM after 6 days by flow cytometry
Series [17] has the same target. To be noted: HL-60, 5 to 10 uM. The source holds these as a separate data set.
Description: Inhibition of GSK-3 alpha in human HL-60 cells assessed as increased vacuolization at 5 to 10 uM after 6 days by May-Grunwald Giemsa staining based light microscopy
For series [18] the target is unchanged. To be noted: NB-4, 5 to 10 uM. The source holds these as a separate data set.
Description: Inhibition of GSK-3 alpha in human NB4 cells assessed as increased vacuolization at 5 to 10 uM after 6 days by May-Grunwald Giemsa staining based light microscopy
The test system of series [19] is Danio rerio. Description: Inhibition of embryonic development in wild type zebrafish embryo in E3 medium assessed as beta catenin activation at >30 uM dosed 24 hrs of post fertilization. The class given is functional, organism-based.
The target in series [20] is T1, Glycogen synthase kinase-3 alpha. To be noted: NB-4, 5 to 10 uM. This is another data set of the same source.
Description: Inhibition of GSK-3 alpha in human NB4 cells assessed as decreased nuclear to cytoplasmic ratio at 5 to 10 uM after 6 days by May-Grunwald Giemsa staining based light microscopy
Series [21] has the same target. The settings on record: NB-4, 5 to 10 uM. The source holds these as a separate data set.
Description: Inhibition of GSK-3 alpha in human NB4 cells assessed as CD11c expression at 5 to 10 uM after 6 days by flow cytometry
In series [22] the test system is Danio rerio. Description: Induction of morphological abnormality in wild type zebrafish embryo in E3 medium dosed 24 hrs of post fertilization. The format is functional, organism-based.

pIC50: −log10 of the molar value. Converted amounts (≈) assume the structure as drawn. The source made the active and inactive calls. No cut-off for these calls is given here. A value given as a limit tells only on which side of the number the result lay.

Chain of Glycogen synthase kinase-3 beta (P49841 whole entry): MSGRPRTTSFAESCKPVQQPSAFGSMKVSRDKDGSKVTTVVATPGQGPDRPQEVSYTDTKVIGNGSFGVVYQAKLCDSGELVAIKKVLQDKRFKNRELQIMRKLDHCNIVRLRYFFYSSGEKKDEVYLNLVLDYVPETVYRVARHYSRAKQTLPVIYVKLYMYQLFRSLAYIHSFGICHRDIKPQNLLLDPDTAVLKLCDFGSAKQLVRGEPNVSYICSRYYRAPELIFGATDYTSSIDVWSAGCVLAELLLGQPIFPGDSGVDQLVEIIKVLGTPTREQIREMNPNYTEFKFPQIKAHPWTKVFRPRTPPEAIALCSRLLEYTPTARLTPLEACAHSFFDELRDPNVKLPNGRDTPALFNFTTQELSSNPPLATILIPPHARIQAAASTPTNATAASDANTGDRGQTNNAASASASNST

`Fc1ccc(-c2ccc(CSc3nnc(-c4ccc5c(c4)OCCO5)o3)cc2)cn1` came in with a thermodynamic solubility in series [1] of 17 µM (≈ 7.16 µg/mL).

In turn, `Fc1ccc(-c2ccc(CSc3nnc(-c4ccc5c(c4)OCCO5)o3)cn2)cn1` displayed a thermodynamic solubility in series [1] of 1 µM (≈ 0.422 µg/mL).

`N#Cc1cc(F)ccc1-c1ccc(CSc2nnc(-c3ccc4c(c3)OCCO4)o2)cc1`: in series [1], the thermodynamic solubility worked out at 1 µM (≈ 0.445 µg/mL).

`N#Cc1ccc(-c2ccc(CSc3nnc(-c4ccc5c(c4)OCCO5)o3)cc2)cn1` yielded a solubility (thermodynamic) in series [1] of 50 µM (≈ 21.4 µg/mL).

In the case of `N#Cc1cc(F)ccc1-c1ccc(CS(=O)(=O)c2nnc(-c3ccc4c(c3)OCCO4)o2)cc1`, the inhibition in series [2] and in series [3] was 0% throughout.

In series [1], `Cc1ccc(-c2ccc(CSc3nnc(-c4ccc5c(c4)OCCO5)o3)cc2)nc1` came in with a thermodynamic solubility of 1 µM (≈ 0.417 µg/mL).

For `Cc1ccc(-c2ccc(CSc3nnc(-c4ccc5c(c4)OCCO5)o3)cc2)cn1`, in series [1], the thermodynamic solubility was < 1 µM.

For the molecule `NC(=O)c1cc(F)ccc1-c1ccc(CSc2nnc(-c3ccc4c(c3)OCCO4)o2)cc1`, the inhibition entry in [4], in series [5], in series [6], in [9], in [10] and in series [14] was “Active” in each case. The inhibition entry in series [15], in series [16], in series [17], in series [18], in series [20] and in [21] was “Active” in each case. Also, the results for the pIC50 in [7] and in [11] were 7.38 and 6.85, respectively. Also, the Activity entry in series [8] was “Non-toxic”. Also, in series [12], the outcome was inactive. Also, the result in [13] and in series [19] was Active. Besides, in series [1], the thermodynamic solubility amounted to 73 µM (≈ 33.8 µg/mL).

As for `N#Cc1ccc(-c2ccc(CSc3nnc(-c4ccc5c(c4)OCCO5)o3)cc2)nc1`, the Activity entry in series [8] is given as “Non-toxic”. In series [1], this molecule had a thermodynamic solubility of 181 µM (≈ 77.6 µg/mL). Besides, the result in series [22] was inactive.

The term thermodynamic solubility denotes the concentration in solution at equilibrium with solid. One may read the inhibition as the drop in the measured response relative to a control, in per cent. As a reminder, the pIC50 is −log10 of the IC50, conventionally taken in molar units.
